Measurements taken from ChEMBL document CHEMBL4007451, “The 2014 Philip S. Portoghese Medicinal Chemistry Lectureship: The "Phenylalkylaminome" with a Focus on Selected Drugs of Abuse” (J Med Chem, 2017).

Experiments:
[1] = target: Sodium-dependent dopamine transporter (Homo sapiens, UniProt Q01959); test: Activity at DAT (unknown origin) assessed as release of [3H]DA
[2] = target: Sodium-dependent serotonin transporter (Homo sapiens, UniProt P31645); test: Activity at SERT (unknown origin) assessed as release of [3H]HT
Homo sapiens = species on record: Homo sapiens; test: Selectivity ratio of EC50 for SERT (unknown origin) assessed as release of [3H]HT to EC50 for DAT (unknown origin) by [3H]DA release assay
[3] = target: T1, 5-hydroxytryptamine receptor 2A (Rattus norvegicus, UniProt P14842); test: Displacement of [125I](+/-)DOI from rat 5HT2A after 1 hr by beta scintillation counting method
[4] = Activity at NET in rat synaptosomes assessed as release of [3H]NE after 30 mins by liquid scintillation counting method; type: subcellular
[5] = target: T2, 5-hydroxytryptamine receptor 1A (Rattus norvegicus, UniProt P19327); test: Displacement of [3H]-8-OH-DPAT from 5-HT1A receptor in Sprague-Dawley rat cortex membranes after 15 mins by liquid scintillation spectrometric method; type: cell membranes
T2 sequence (P19327 whole entry): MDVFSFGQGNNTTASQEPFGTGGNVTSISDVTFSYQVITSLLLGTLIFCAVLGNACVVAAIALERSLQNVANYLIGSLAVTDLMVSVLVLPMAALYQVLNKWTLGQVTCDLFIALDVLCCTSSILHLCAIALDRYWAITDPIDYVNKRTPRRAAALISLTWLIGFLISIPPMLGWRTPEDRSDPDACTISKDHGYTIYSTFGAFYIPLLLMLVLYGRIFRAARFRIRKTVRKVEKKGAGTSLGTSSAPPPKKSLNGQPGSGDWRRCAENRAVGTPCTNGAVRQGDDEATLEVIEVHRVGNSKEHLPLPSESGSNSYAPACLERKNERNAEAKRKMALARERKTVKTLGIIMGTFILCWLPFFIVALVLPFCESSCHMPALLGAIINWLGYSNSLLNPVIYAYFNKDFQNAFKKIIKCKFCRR

[6] = target: Sigma non-opioid intracellular receptor 1 (Cavia porcellus, UniProt Q60492); test: Displacement of (+)-[3H]pentazocine from guinea pig brain membrane sigma1 receptor by scintillation spectrometric method
Mus musculus = test: Anxiolytic-like activity in iv dosed ICR mouse assessed as increase in marbles left uncovered measured after 30 mins by marble burying assay; type: functional; details: 0.5 h
Rattus norvegicus [7] = species on record: Rattus norvegicus; test: Induction of stimulus generalization in rat trained to discriminate PMMA assessed as appropriate responding level to training drug by two lever method; type: functional; details: for ED50: Rattus norvegicus
Rattus norvegicus [8] = species on record: Rattus norvegicus; test: Induction of stimulus generalization in rat trained to discriminate MDMA assessed as appropriate responding level to training drug by two lever method; type: functional; details: for ED50: Rattus norvegicus
[9] = target: Sodium-dependent dopamine transporter (Rattus norvegicus, UniProt P23977); test: Activity at DAT in rat synaptosomes assessed as release of [3H]DA after 5 mins by liquid scintillation counting method; type: subcellular
[10] = target: Sodium-dependent serotonin transporter (Rattus norvegicus, UniProt P31652); test: Activity at SERT in rat synaptosomes assessed as release of [3H]HT after 5 mins by liquid scintillation counting method; type: subcellular
Rattus norvegicus [11] = species on record: Rattus norvegicus; test: Induction of stimulus generalization in Sprague-Dawley rat trained to discriminate MDMA assessed as appropriate responding level to training drug by two lever method; type: functional; details: Rattus norvegicus, Sprague-Dawley
Rattus norvegicus [12] = species on record: Rattus norvegicus; test: Induction of stimulus generalization in Sprague-Dawley rat trained to discriminate alpha-ET assessed as appropriate responding level to training drug by two lever method; type: functional; details: Rattus norvegicus, Sprague-Dawley
Rattus norvegicus [13] = species on record: Rattus norvegicus; test: Induction of stimulus generalization in rat trained to discriminate DOM assessed as appropriate responding level to training drug by two lever method; type: functional
Rattus norvegicus [14] = species on record: Rattus norvegicus; test: Induction of stimulus generalization in Sprague-Dawley rat trained to discriminate DOM assessed as appropriate responding level to training drug by two lever method; type: functional; details: Rattus norvegicus, Sprague-Dawley
Rattus norvegicus [15] = species on record: Rattus norvegicus; test: Induction of stimulus generalization in Sprague-Dawley rat trained to discriminate AMPH assessed as appropriate responding level to training drug by two lever method; type: functional
Rattus norvegicus [16] = species on record: Rattus norvegicus; test: Induction of stimulus generalization in Sprague-Dawley rat trained to discriminate rac-cathinone assessed as appropriate responding level to training drug by two lever method; type: functional
Rattus norvegicus [17] = species on record: Rattus norvegicus; test: Induction of stimulus generalization in Sprague-Dawley rat trained to discriminate S(+)AMPH assessed as appropriate responding level to training drug by two lever method; type: functional
Rattus norvegicus [18] = species on record: Rattus norvegicus; test: Induction of stimulus generalization in Sprague-Dawley rat trained to discriminate S(-)MCAT assessed as appropriate responding level to training drug by two lever method; type: functional
Rattus norvegicus [19] = species on record: Rattus norvegicus; test: Induction of stimulus generalization in rat trained to discriminate S(+)methamphetamine assessed as appropriate responding level to training drug by two lever method; type: functional
Rattus norvegicus [20] = test: In vivo agonist activity at 5HT2A in ip dosed DOM-trained Sprague-Dawley rat assessed as increase in discriminative stimulus pretreated before testing; type: functional
Rhesus monkey = test: In vivo agonist activity at 5HT2A in DOM-trained rhesus monkey assessed as increase in discriminative stimulus administered subcutaneously pretreated before testing; type: functional; details: Macaca mulatta, sc
[21] = target: T1, 5-hydroxytryptamine receptor 2A; test: Displacement of [3H]ketanserin from 5HT2A in Sprague-Dawley rat frontal cortex membranes measured after 15 mins by scintillation counting method; parameters: species or system Membrane
[22] = target: 5-hydroxytryptamine receptor 2A (Homo sapiens, UniProt P28223); test: Displacement of [125I]DOI from recombinant human 5HT2A expressed in Syrian hamster AV12 cell membranes
Rattus norvegicus [23] = species on record: Rattus norvegicus; test: Induction of stimulus generalization in rat trained to discriminate (+)amphetamine assessed as appropriate responding level to training drug by two lever method; type: functional
[24] = Displacement of [3H]DTG from sigma receptor (unknown origin); parameters: species or system Homo sapiens
[25] = Displacement of [3H]ketanserin from rat brain 5HT2 receptor
[26] = target: T1, 5-hydroxytryptamine receptor 2A; test: Displacement of [3H]DOB from 5HT2A in Sprague-Dawley rat cortex membranes measured after 15 mins by scintillation counting method; type: cell membranes
Rattus norvegicus [27] = species on record: Rattus norvegicus; test: Induction of stimulus generalization in rat trained to discriminate (-)ephedrine assessed as appropriate responding level to training drug by two lever method; type: functional

T1 sequence (P14842 whole entry): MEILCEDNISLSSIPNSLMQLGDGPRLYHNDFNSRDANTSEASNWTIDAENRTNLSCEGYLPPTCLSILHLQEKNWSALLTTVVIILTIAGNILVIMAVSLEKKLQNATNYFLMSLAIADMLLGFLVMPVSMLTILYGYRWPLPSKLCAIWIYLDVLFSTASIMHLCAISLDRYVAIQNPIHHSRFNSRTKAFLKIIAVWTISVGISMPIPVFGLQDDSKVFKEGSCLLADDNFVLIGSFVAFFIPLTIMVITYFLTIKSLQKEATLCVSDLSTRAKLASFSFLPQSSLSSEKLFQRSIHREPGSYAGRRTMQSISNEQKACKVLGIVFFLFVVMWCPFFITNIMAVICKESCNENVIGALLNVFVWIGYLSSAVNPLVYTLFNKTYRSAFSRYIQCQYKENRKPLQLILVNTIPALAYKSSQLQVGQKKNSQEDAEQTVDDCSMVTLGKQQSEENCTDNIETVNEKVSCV
Sequence of Sodium-dependent serotonin transporter (Rattus norvegicus, UniProt P31652) (P31652 whole entry): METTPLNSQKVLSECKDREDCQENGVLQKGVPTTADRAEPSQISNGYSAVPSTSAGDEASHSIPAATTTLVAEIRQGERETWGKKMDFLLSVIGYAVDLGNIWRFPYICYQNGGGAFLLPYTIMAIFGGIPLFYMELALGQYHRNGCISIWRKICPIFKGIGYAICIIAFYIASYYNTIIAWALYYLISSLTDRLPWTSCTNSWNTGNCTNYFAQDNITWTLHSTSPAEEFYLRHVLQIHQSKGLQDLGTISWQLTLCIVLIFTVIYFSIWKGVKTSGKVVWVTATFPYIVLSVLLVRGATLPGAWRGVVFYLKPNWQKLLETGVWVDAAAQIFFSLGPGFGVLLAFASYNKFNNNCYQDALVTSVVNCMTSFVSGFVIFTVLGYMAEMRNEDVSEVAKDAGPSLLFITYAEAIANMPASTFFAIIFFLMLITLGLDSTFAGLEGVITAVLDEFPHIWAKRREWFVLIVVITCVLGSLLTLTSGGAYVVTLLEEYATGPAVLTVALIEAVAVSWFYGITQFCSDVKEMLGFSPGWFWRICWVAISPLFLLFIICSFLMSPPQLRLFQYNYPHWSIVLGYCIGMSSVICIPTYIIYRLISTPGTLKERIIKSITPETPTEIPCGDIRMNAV
Sequence of Sodium-dependent dopamine transporter (Rattus norvegicus, UniProt P23977) (P23977 whole entry): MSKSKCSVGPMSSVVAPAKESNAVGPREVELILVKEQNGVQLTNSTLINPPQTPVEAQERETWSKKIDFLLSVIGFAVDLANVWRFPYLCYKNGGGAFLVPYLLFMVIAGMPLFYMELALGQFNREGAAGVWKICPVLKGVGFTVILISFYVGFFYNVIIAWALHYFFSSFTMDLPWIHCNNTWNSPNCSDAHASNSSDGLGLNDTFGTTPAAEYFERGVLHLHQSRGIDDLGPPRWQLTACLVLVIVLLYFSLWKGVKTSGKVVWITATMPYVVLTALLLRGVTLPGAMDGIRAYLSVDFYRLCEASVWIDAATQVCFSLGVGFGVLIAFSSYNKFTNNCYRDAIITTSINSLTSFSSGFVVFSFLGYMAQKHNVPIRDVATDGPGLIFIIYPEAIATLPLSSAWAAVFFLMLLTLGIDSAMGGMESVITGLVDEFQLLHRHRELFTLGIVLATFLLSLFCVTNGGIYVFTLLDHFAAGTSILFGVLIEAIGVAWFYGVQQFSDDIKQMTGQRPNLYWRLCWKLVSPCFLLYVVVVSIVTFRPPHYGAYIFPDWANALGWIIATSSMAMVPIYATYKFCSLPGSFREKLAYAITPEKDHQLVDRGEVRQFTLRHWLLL
Sequence of Sigma non-opioid intracellular receptor 1 (Q60492 whole entry): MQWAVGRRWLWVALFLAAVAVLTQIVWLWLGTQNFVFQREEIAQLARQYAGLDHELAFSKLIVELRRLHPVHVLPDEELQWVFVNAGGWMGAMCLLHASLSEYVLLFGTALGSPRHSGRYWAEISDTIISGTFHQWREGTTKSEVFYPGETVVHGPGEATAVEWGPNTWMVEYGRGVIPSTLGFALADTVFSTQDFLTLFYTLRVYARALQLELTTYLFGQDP
Sequence of 5-hydroxytryptamine receptor 2A (Homo sapiens, UniProt P28223) (P28223 whole entry): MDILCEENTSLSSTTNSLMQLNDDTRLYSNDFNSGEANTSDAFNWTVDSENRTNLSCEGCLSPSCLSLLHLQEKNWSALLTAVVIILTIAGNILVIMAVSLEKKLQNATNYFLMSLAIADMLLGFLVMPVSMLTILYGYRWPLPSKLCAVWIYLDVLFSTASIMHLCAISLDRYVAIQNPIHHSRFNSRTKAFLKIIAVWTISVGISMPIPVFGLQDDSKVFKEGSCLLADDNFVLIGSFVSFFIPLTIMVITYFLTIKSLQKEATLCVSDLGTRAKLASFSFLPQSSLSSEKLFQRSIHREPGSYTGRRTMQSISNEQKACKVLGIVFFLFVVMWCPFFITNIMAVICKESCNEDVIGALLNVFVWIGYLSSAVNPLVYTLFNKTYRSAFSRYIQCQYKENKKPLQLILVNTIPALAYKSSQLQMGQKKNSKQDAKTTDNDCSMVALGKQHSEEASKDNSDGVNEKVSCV
Sequence of Sodium-dependent dopamine transporter (Homo sapiens, UniProt Q01959) (Q01959 whole entry): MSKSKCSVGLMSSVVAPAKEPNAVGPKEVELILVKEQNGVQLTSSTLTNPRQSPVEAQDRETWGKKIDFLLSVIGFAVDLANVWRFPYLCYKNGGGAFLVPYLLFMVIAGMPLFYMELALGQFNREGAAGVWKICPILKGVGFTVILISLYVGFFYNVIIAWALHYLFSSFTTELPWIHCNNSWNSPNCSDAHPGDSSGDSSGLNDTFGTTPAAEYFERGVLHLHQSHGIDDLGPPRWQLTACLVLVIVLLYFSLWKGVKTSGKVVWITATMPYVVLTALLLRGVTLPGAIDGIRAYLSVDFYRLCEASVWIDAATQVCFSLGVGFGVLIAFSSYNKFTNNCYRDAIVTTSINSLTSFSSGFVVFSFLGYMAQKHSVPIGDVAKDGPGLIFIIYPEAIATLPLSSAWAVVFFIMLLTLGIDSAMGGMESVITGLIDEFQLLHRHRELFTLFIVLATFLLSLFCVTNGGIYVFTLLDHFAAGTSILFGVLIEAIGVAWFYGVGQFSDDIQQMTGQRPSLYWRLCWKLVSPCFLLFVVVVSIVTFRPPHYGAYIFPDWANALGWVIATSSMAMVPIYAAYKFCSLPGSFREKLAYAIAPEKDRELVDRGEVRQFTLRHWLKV
Sequence of Sodium-dependent serotonin transporter (Homo sapiens, UniProt P31645) (P31645 whole entry): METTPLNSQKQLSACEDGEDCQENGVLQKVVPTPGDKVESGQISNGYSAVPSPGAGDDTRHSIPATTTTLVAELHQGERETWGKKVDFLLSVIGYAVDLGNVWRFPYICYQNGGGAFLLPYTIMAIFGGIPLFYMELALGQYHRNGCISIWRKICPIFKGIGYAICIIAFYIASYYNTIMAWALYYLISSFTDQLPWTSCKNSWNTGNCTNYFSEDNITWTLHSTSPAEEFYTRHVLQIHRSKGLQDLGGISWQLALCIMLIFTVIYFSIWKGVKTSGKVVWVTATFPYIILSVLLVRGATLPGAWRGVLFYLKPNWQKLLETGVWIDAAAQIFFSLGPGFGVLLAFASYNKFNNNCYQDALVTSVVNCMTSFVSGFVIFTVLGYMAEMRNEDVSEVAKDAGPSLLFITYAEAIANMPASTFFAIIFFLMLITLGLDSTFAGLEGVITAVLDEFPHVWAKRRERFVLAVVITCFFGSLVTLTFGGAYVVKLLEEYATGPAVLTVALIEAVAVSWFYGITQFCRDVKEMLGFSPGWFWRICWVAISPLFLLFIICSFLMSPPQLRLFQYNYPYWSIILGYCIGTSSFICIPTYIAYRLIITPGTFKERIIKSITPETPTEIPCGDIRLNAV

Question: Which results are given for CNC(C)C(=O)c1ccccc1 (centres undefined)?
Answer: EC50 [1]: 12.5 nM; EC50 [2]: 3860 nM; Ratio EC50 (Homo sapiens): > 200

Question: Which Ki [3] does the source give for COc1cc([C@H](OC)[C@@H](C)N)c(OC)cc1Br here?
Answer: 17.4 nM

Question: With CCNC(C)Cc1cccc(C(F)(F)F)c1 (centres undefined) [FENFLURAMINE] as the molecule, how does the EC50 [4] read?
Answer: 740 nM

Question: Which Ki [5] does the source give for CCN(CC)[C@@H]1CCc2cccc(O)c2C1 here?
Answer: 9.65 nM

Question: With C[C@H](Cc1ccccc1)NCCCCCc1ccccc1 as the molecule, how does the Ki [6] read?
Answer: 0.5 nM

Question: For COc1cc([C@@H](OC)[C@H](C)N)c(OC)cc1Br, which Ki [3] is on record?
Answer: 0.8 nM

Question: For CN1C(=O)CN=C(c2ccccc2)c2cc(Cl)ccc21 [DIAZEPAM], which ED50 (Mus musculus) is on record?
Answer: 0.26 mg/kg

Question: For COc1cccc(C[C@@H](C)N)c1, which Activity (Rattus norvegicus [7]) is on record?
Answer: 20 - 80%

Question: And the ED50 (Rattus norvegicus [8])?
Answer: 1.4 mg/kg

Question: Which EC50 [4] does the source give for CN[C@H](C)Cc1ccc(OC)cc1 here?
Answer: > 14000 nM

Question: What about the EC50 [9] of the same molecule?
Answer: 1600 nM

Question: And the EC50 [10]?
Answer: 134 nM

Question: Which results are given for CCC(N)Cc1c[nH]c2ccccc12 (racemic) [ETRYPTAMINE]?
Answer: ED50 (Rattus norvegicus [11]): 3.5 mg/kg; ED50 (Rattus norvegicus [12]): 1.3 mg/kg; ED50 (Rattus norvegicus [13]): 6.6 mg/kg; ED50 (Rattus norvegicus [14]): 6.6 mg/kg; Activity (Rattus norvegicus [15]): 20 - 80%

Question: With C[C@H](N)[C@@H](O)c1ccccc1 [CATHINE] as the molecule, how does the ED50 (Rattus norvegicus [16]) read?
Answer: 1.61 mg/kg

Question: Which ED50 (Rattus norvegicus [17]) does the source give for CN[C@@H](C)Cc1ccccc1 [METHAMPHETAMINE] here?
Answer: 0.2 mg/kg

Question: And the ED50 (Rattus norvegicus [18])?
Answer: 0.17 mg/kg

Question: And the ED50 (Rattus norvegicus [19])?
Answer: 0.06 mg/kg

Question: For COc1cc(C[C@@H](C)N)c(OC)cc1I, which ED50 (Rattus norvegicus [20]) is on record?
Answer: 0.2 mg/kg

Question: And the ED50 (Rhesus monkey)?
Answer: 0.04 mg/kg

Question: For CN[C@H](C)Cc1ccc2c(c1)OCO2, which EC50 [4] is on record?
Answer: 560 nM

Question: What about the Ki [21] of the same molecule?
Answer: 3310 nM

Question: What about the EC50 [9] of the same molecule?
Answer: 3700 nM

Question: What about the EC50 [10] of the same molecule?
Answer: 340 nM

Question: For CCCNC(C)Cc1cc(OC)c(Br)cc1OC (centres undefined), which Ki [22] is on record?
Answer: 88.5 nM

Question: With C[C@H](N)C(=O)c1ccccc1 [CATHINONE] as the molecule, how does the ED50 (Rattus norvegicus [17]) read?
Answer: 0.34 mg/kg

Question: What about the ED50 (Rattus norvegicus [18]) of the same molecule?
Answer: 0.17 mg/kg

Question: And the ED50 (Rattus norvegicus [16])?
Answer: 0.22 mg/kg

Question: And the ED50 (Rattus norvegicus [23])?
Answer: 0.32 mg/kg

Question: Which Ki [24] does the source give for C=CCN1CC[C@]2(C)c3cc(O)ccc3C[C@H]1[C@H]2C here?
Answer: 150 nM

Question: With C[C@@H](N)Cc1c[nH]c2ccccc12 as the molecule, how does the Ki [25] read?
Answer: 5000 nM

Question: With COc1ccc(C[C@H](C)N)cc1OC as the molecule, how does the ED50 (Rattus norvegicus [7]) read?
Answer: 2.6 mg/kg

Question: And the ED50 (Rattus norvegicus [8])?
Answer: 6.1 mg/kg

Question: Which EC50 [4] does the source give for CN[C@@H](C)Cc1ccc(OC)cc1 here?
Answer: 147 nM

Question: What about the ED50 (Rattus norvegicus [7]) of the same molecule?
Answer: 0.3 mg/kg

Question: What about the EC50 [9] of the same molecule?
Answer: 1000 nM

Question: And the EC50 [10]?
Answer: 41 nM

Question: What does the source list for COc1ccc(C[C@H](C)N)cc1?
Answer: Activity (Rattus norvegicus [7]): 20 - 80%; Activity (Rattus norvegicus [8]): 20 - 80%

Question: What does the source list for CNC(C)Cc1ccc2c(c1)OCO2 (racemic) [MIDOMAFETAMINE]?
Answer: EC50 [4]: 110 nM; ED50 (Rattus norvegicus [7]): 1.32 mg/kg; EC50 [9]: 278 nM; EC50 [10]: 72 nM

Question: Which Ki [26] does the source give for COc1ccc(OC)c(CC(C)N)c1 (centres undefined) here?
Answer: 268 nM

Question: Which EC50 [4] does the source give for C[C@H](N)Cc1ccc2c(c1)OCO2 here?
Answer: 50 nM

Question: What about the ED50 (Rattus norvegicus [7]) of the same molecule?
Answer: 0.7 mg/kg

Question: And the EC50 [9]?
Answer: 98 nM

Question: What about the EC50 [10] of the same molecule?
Answer: 100 nM

Question: Which results are given for C[C@H](N)Cc1c[nH]c2ccccc12?
Answer: ED50 (Rattus norvegicus [13]): 1.64 mg/kg; Ki [25]: 2500 nM

Question: Which ED50 (Rattus norvegicus [19]) does the source give for CN[C@H](C)Cc1ccccc1 here?
Answer: 1.61 mg/kg

Question: And the ED50 (Rattus norvegicus [27])?
Answer: 0.9 mg/kg

Question: Which Ki [6] does the source give for c1ccc(CCCCCN2CCCCC2)cc1 here?
Answer: 0.38 nM

Question: With CC(Cc1ccccc1)NCCCCCc1ccccc1 (centres undefined) as the molecule, how does the Ki [24] read?
Answer: 6.3 nM
